Test results: patent publication US11304946B2, “2-hetarylpyrimidine-4-carboxamides as aryl hydrocarbon receptor antagonists” (Bayer Aktiengesellschaft, priority 2017, dated 2022)

What was measured:
Human AhR = target: T1, Human AhR (Homo sapiens, UniProt P35869); assay: Transactivation assay in human cell line (in vitro assay 1: antagonism); type: cell-based; conditions: U87 glioblastoma cells, AHR inducible (DRE) firefly luciferase reporter, 150 μM kynurenic acid, 20 hours
T1 construct: host or cells: U87 glioblastoma cells, stably transfected with DRE-driven firefly luciferase and constitutive renilla reporter constructs
T1 sequence (P35869 11-848): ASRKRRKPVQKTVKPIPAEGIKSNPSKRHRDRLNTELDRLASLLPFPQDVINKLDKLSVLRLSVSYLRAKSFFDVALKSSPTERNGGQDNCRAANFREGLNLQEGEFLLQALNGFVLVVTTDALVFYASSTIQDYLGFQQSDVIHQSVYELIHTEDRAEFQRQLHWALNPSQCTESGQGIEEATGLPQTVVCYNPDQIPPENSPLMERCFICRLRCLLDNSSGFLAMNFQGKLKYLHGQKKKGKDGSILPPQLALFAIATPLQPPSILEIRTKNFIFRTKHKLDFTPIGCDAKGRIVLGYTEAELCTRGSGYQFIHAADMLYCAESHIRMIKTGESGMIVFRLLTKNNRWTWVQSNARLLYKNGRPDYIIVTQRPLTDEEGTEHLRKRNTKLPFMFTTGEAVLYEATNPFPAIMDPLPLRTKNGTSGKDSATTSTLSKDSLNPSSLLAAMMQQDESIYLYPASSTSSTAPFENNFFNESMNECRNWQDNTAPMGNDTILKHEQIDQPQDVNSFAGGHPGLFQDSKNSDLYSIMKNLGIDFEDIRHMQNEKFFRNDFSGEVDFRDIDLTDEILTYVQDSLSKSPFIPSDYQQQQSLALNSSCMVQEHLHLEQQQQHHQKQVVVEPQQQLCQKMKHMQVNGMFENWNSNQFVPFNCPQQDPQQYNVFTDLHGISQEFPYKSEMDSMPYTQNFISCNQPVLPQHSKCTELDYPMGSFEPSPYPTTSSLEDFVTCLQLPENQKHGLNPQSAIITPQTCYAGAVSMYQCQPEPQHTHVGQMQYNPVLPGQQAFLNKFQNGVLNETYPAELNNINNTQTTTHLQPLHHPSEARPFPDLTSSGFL
How it was run: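 U87 glioblastoma cells with endogenous AHR, stably carrying DRE-driven firefly luciferase and constitutive Renilla reporters, prestimulated with kynurenic acid before compound. Dual luciferase read-out; Renilla signal used to flag toxicity.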

Mouse AhR = target: T2, Mouse AhR (Mus musculus, UniProt P30561); assay: Transactivation assay in mouse cell line (in vitro assay 2: antagonism); type: cell-based; conditions: Hepa 1c1c7 cells, AHR inducible (DRE) firefly luciferase reporter, 200 μM kynurenic acid, 20 hours
T2 sequence (P30561 1-848): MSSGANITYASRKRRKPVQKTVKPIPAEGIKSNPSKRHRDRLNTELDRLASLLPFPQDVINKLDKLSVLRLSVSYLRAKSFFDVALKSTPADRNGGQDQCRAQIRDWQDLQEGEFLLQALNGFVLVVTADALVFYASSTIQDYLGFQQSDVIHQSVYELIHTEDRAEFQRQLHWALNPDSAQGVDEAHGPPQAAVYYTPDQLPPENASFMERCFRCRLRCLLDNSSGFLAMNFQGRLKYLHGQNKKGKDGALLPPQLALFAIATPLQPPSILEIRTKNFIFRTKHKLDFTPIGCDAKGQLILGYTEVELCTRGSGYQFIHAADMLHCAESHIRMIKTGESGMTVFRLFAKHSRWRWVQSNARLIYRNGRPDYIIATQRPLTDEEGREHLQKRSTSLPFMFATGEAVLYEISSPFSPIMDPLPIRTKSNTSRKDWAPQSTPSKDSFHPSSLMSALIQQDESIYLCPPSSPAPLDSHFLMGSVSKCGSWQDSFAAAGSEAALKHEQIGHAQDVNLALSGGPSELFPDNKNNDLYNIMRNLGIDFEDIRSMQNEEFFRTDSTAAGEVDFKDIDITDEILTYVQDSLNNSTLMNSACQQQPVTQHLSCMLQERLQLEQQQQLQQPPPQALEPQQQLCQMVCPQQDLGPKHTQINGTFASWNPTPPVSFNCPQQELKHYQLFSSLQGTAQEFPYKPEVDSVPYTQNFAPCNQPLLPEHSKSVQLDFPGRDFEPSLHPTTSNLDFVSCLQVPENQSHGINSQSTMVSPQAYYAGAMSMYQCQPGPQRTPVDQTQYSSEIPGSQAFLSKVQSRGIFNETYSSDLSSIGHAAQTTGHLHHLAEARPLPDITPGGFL
Method: Transactivation Assay in Mouse Cell Line (In Vitro Assay 2)
Transactivation assay was carried out in Hepa 1c1c7 cells (ATCC #CRL-2026) endogenously expressing AHR. In addition the cells were stably transfected with an AHR inducible firefly luciferase reporter gene construct that carried AHR-binding sites (DRE) in its promoter. Kynurenic acid is an endogenous AHR activating ligand and was used to prestimulate test cells prior to testing the antagonistic properties of compounds.
In Vitro Assay 2: Antagonism in Mouse Cell Line
Firefly luciferase activity was determined by the SteadyGlo Luciferase Assay System (Promega, #E2550).

| Structure (SMILES) | IC50 (Human AhR) | IC50 (Mouse AhR) |
| --- | --- | --- |
| Cc1ccc(-c2nc(C(=O)NCC(C)(C)O)cc(-c3ccc(Cl)cc3)n2)cn1 [Example 60, 6-(4-chlorophenyl)-N-(2-hydroxy-2-methylpropyl)-2-(6-methylpyridin-3-yl)pyrimidine-4-carboxamide] | 64.7 nM | 1420 nM |
| CC(C)(O)CNC(=O)c1cc(-c2ccc(Cl)cc2)nc(-c2cnn(C3CC3)c2)n1 [Example 68, 6-(4-chlorophenyl)-2-(1-cyclopropyl-1H-pyrazol-4-yl)-N-(2-hydroxy-2-methylpropyl)pyrimidine-4-carboxamide] | 7240 nM | 9830 nM |
| C[C@@H](CO)NC(=O)c1cc(-c2ccc(Cl)cc2)nc(-c2ccc(C#N)s2)n1 [Example 70, 6-(4-chlorophenyl)-2-(5-cyanothiophen-2-yl)-N-[(2S)-1-hydroxypropan-2-yl]pyrimidine-4-carboxamide] | 94.2 nM | 295 nM |
| Cc1cscc1-c1nc(C(=O)N[C@@H](C)CO)cc(-c2ccc(Cl)cc2)n1 [Example 71, 6-(4-chlorophenyl)-N-[(2S)-1-hydroxypropan-2-yl]-2-(4-methylthiophen-3-yl)pyrimidine-4-carboxamide] | 3.23 nM | 4.71 nM |
| C[C@@H](CO)NC(=O)c1cc(-c2ccc(Cl)cc2)nc(-c2ccc(Cl)s2)n1 [Example 72, 6-(4-chlorophenyl)-2-(5-chlorothiophen-2-yl)-N-[(2S)-1-hydroxypropan-2-yl]pyrimidine-4-carboxamide] | 32.6 nM | 98.2 nM |
| Cc1ccsc1-c1nc(C(=O)N[C@@H](C)CO)cc(-c2ccc(Cl)cc2)n1 [Example 73, 6-(4-chlorophenyl)-N-[(2S)-1-hydroxypropan-2-yl]-2-(3-methylthiophen-2-yl)pyrimidine-4-carboxamide] | 16.3 nM | 28.8 nM |
| C[C@@H](CO)NC(=O)c1cc(-c2ccc(Cl)cc2)nc(-c2ccnn2C)n1 [Example 74, 6-(4-chlorophenyl)-N-[(2S)-1-hydroxypropan-2-yl]-2-(1-methyl-1H-pyrazol-5-yl)pyrimidine-4-carboxamide] | 33.6 nM | 62.9 nM |
| C[C@@H](CO)NC(=O)c1cc(-c2ccc(Cl)cc2)nc(-c2cncnc2)n1 [Example 75, 6-(4-chlorophenyl)-N-[(2S)-1-hydroxypropan-2-yl][2,5′-bipyrimidine]-4-carboxamide] | 6.37 nM | 21.2 nM |
| Cc1ccc(-c2nc(C(=O)N[C@@H](C)CO)cc(-c3ccc(Cl)cc3)n2)cn1 [Example 79, 6-(4-chlorophenyl)-N-[(2S)-1-hydroxypropan-2-yl]-2-(6-methylpyridin-3-yl)pyrimidine-4-carboxamide] | 108 nM | 671 nM |
| COc1ccncc1-c1nc(C(=O)N[C@@H](C)CO)cc(-c2ccc(Cl)cc2)n1 [Example 80, 6-(4-chlorophenyl)-N-[(2S)-1-hydroxypropan-2-yl]-2-(4-methoxypyridin-3-yl)pyrimidine-4-carboxamide] | 2.64 nM | 30.8 nM |
| Cc1nn(C)cc1-c1nc(C(=O)N[C@@H](C)CO)cc(-c2ccc(Cl)cc2)n1 [Example 83, 6-(4-chlorophenyl)-2-(1,3-dimethyl-1H-pyrazol-4-yl)-N-[(2S)-1-hydroxypropan-2-yl]pyrimidine-4-carboxamide] | 54.2 nM | 1510 nM |
| C[C@@H](CO)NC(=O)c1cc(-c2ccc(Cl)cc2)nc(-c2cnn(C3CC3)c2)n1 [Example 85, 6-(4-chlorophenyl)-2-(1-cyclopropyl-1H-pyrazol-4-yl)-N-[(2S)-1-hydroxypropan-2-yl]pyrimidine-4-carboxamide] | 1200 nM | 7400 nM |
| Cn1cc(-c2nc(C(=O)N[C@H](CO)C(C)(C)C)cc(-c3ccc(OC(F)(F)F)cc3)n2)cn1 [Example 88, N-[(2S)-1-hydroxy-3,3-dimethylbutan-2-yl]-2-(1-methyl-1H-pyrazol-4-yl)-6-[4-(trifluoromethoxy)phenyl]pyrimidine-4-carboxamide] | 20.4 nM | 8.19 nM |
| Cn1cc(-c2nc(C(=O)NC(CO)(CO)C(F)(F)F)cc(-c3ccc(OC(F)(F)F)cc3)n2)cn1 [Example 89, 2-(1-methyl-1H-pyrazol-4-yl)-N-[1,1,1-trifluoro-3-hydroxy-2-(hydroxymethyl)propan-2-yl]-6-[4-(trifluoromethoxy)phenyl]pyrimidine-4-carboxamide] | 7.95 nM | 4.34 nM |
| Cn1cc(-c2nc(C(=O)NC(CO)Cc3cccnc3)cc(-c3ccc(OC(F)(F)F)cc3)n2)cn1 (stereo not drawn) [Example 93, N-[1-hydroxy-3-(pyridin-3-yl)propan-2-yl]-2-(1-methyl-1H-pyrazol-4-yl)-6-[4-(trifluoromethoxy)phenyl]pyrimidine-4-carboxamide] | 34.1 nM | 16.5 nM |
| Cn1cc(-c2nc(C(=O)NC(CO)C3CCC3)cc(-c3ccc(OC(F)(F)F)cc3)n2)cn1 (stereo not drawn) [Example 94, N-(1-cyclobutyl-2-hydroxyethyl)-2-(1-methyl-1H-pyrazol-4-yl)-6-[4-(trifluoromethoxy)phenyl]pyrimidine-4-carboxamide] | 5.44 nM | 24.3 nM |
| Cn1cc(-c2nc(C(=O)N[C@H](CO)CF)cc(-c3ccc(OC(F)(F)F)cc3)n2)cn1 [Example 95, N-[(2R)-1-fluoro-3-hydroxypropan-2-yl]-2-(1-methyl-1H-pyrazol-4-yl)-6-[4-(trifluoromethoxy)phenyl]pyrimidine-4-carboxamide] | 3.48 nM | 4 nM |
| Cn1cc(-c2nc(C(=O)N[C@H](CO)C3CC3)cc(-c3ccc(OC(F)(F)F)cc3)n2)cn1 [Example 99, N-[(1S)-1-cyclopropyl-2-hydroxyethyl]-2-(1-methyl-1H-pyrazol-4-yl)-6-[4-(trifluoromethoxy)phenyl]pyrimidine-4-carboxamide] | 17.6 nM | 21.5 nM |
| Cn1cc(-c2nc(C(=O)N[C@@H](C#N)CO)cc(-c3ccc(OC(F)(F)F)cc3)n2)cn1 [Example 101, N-[(1S)-1-cyano-2-hydroxyethyl]-2-(1-methyl-1H-pyrazol-4-yl)-6-[4-(trifluoromethoxy)phenyl]pyrimidine-4-carboxamide] | 22.3 nM | 18.9 nM |
| C[C@H](NC(=O)c1cc(-c2ccc(OC(F)(F)F)cc2)nc(-c2cnn(C)c2)n1)C(C)(C)O [Example 102, N-[(2S)-3-hydroxy-3-methylbutan-2-yl]-2-(1-methyl-1H-pyrazol-4-yl)-6-[4-(trifluoromethoxy)phenyl]pyrimidine-4-carboxamide] | 6.86 nM | 3.26 nM |
| Cn1cc(-c2nc(C(=O)N[C@H]3COC[C@H]3O)cc(-c3ccc(OC(F)(F)F)cc3)n2)cn1 [Example 103, N-[(3S,4S)-4-hydroxytetrahydrofuran-3-yl]-2-(1-methyl-1H-pyrazol-4-yl)-6-[4-(trifluoromethoxy)phenyl]pyrimidine-4-carboxamide] | 6.74 nM | 5.82 nM |
